{
  "source": "paper PMC10700596",
  "about": "(Nature Communications, 2023)",
  "test": "in vivo",
  "format": "in vivo, mice",
  "details": "plasma, mice, plasma; for Final plasma concentration, individual sample: IP 10 mg/kg, single animal, D=1",
  "note": "“And” between values parts separate entries of the source, which are not always exact repeats. Equal values may be shown once. Read-outs that look alike come from different tables or passages of the source.",
  "data": [
    {"smiles": "O=C([O-])C1CCC2(CC1)CC(Nc1ncnc3[nH]c4c(F)cccc4c13)C2.[Na+]", "note": "(centres unmarked) [Compound 77, [Na+].[O-]C(=O)C1CCC2(CC(C2)NC=3N=CN=C4NC=5C(F)=CC=CC5C34)CC1]", "values": [
      {"measurement": "concentration at 15 min", "setting": "male, CD-1, mouse, po, 30 mg/kg, PO 30 mg/kg, 15 min, read-out: Plasma concentration C (mean)", "result": 24200, "unit": "ng/mL"},
      {"measurement": "concentration at 30 min", "setting": "male, CD-1, mouse, po, 30 mg/kg, PO 30 mg/kg, 30 min, single animals, read-out: Plasma concentration, Final (individual mouse)", "result": 23000, "unit": "ng/mL"},
      {"measurement": "concentration at 30 min", "setting": "male, CD-1, mouse, po, 30 mg/kg, PO 30 mg/kg, 30 min, read-out: Plasma concentration C (mean)", "result": 21700, "unit": "ng/mL"},
      {"measurement": "concentration at 60 min", "setting": "male, CD-1, mouse, po, 30 mg/kg, PO 30 mg/kg, 60 min, single animals, read-out: Plasma concentration, Final (individual mouse)", "result": 24400, "unit": "ng/mL"},
      {"measurement": "concentration at 60 min", "setting": "male, CD-1, mouse, po, 30 mg/kg, PO 30 mg/kg, 60 min, read-out: Plasma concentration C (mean)", "result": 19600, "unit": "ng/mL"},
      {"measurement": "concentration at 120 min", "setting": "male, CD-1, mouse, po, 30 mg/kg, PO 30 mg/kg, 120 min, single animals, read-out: Plasma concentration, Final (individual mouse)", "result": 11600, "unit": "ng/mL"},
      {"measurement": "concentration at 120 min", "setting": "male, CD-1, mouse, po, 30 mg/kg, PO 30 mg/kg, 120 min, read-out: Plasma concentration C (mean)", "result": 9140, "unit": "ng/mL"},
      {"measurement": "concentration at 240 min", "setting": "male, CD-1, mouse, po, 30 mg/kg, PO 30 mg/kg, 240 min, single animals, read-out: Plasma concentration, Final (individual mouse)", "result": 5200, "unit": "ng/mL"},
      {"measurement": "concentration at 240 min", "setting": "male, CD-1, mouse, po, 30 mg/kg, PO 30 mg/kg, 240 min, read-out: Plasma concentration C (mean)", "result": 3600, "unit": "ng/mL"},
      {"measurement": "concentration at 360 min", "setting": "male, CD-1, mouse, po, 30 mg/kg, PO 30 mg/kg, 360 min, single animals, read-out: Plasma concentration, Final (individual mouse)", "result": 4400, "unit": "ng/mL"},
      {"measurement": "concentration at 360 min", "setting": "male, CD-1, mouse, po, 30 mg/kg, PO 30 mg/kg, 360 min, read-out: Plasma concentration C (mean)", "result": 4510, "unit": "ng/mL"},
      {"measurement": "concentration at 480 min", "setting": "male, CD-1, mouse, po, 30 mg/kg, PO 30 mg/kg, 480 min, read-out: Plasma concentration C (mean)", "result": 5240, "unit": "ng/mL"},
      {"measurement": "concentration at 1440 min", "setting": "male, CD-1, mouse, po, 30 mg/kg, PO 30 mg/kg, 1440 min, read-out: Plasma concentration C (mean)", "result": 187, "unit": "ng/mL"},
      {"measurement": "AUC", "setting": "male, CD-1, mouse, po, 30 mg/kg p.o., read-out: AUC (converted)", "result": 108, "unit": "µg·h/mL"},
      {"measurement": "Final plasma concentration, individual sample", "setting": "5 min, listed as Z5090949977, 10 mg/kg", "result": "2415 ng/mL and 2458 ng/mL"},
      {"measurement": "Final plasma concentration, individual sample", "setting": "15 min, listed as Z5090949977, 10 mg/kg", "result": "7952 ng/mL and 6935 ng/mL"},
      {"measurement": "Final plasma concentration, individual sample", "setting": "30 min, listed as Z5090949977, 10 mg/kg", "result": "4477 ng/mL and 7535 ng/mL"},
      {"measurement": "Final plasma concentration, individual sample", "setting": "60 min, listed as Z5090949977, 10 mg/kg", "result": "9306 ng/mL and 9568 ng/mL"},
      {"measurement": "Final plasma concentration, individual sample", "setting": "120 min, listed as Z5090949977, 10 mg/kg", "result": "9975 ng/mL and 654 ng/mL and 8498 ng/mL"},
      {"measurement": "Final plasma concentration, individual sample", "setting": "240 min, listed as Z5090949977, 10 mg/kg", "result": "3566 ng/mL and 4977 ng/mL and 2222 ng/mL"},
      {"measurement": "Final plasma concentration, individual sample", "setting": "360 min, listed as Z5090949977, 10 mg/kg", "result": "2567 ng/mL and 1708 ng/mL"},
      {"measurement": "Final plasma concentration, individual sample", "setting": "480 min, listed as Z5090949977, 10 mg/kg", "result": "872 ng/mL and 500 ng/mL"},
      {"measurement": "Final plasma concentration, individual sample", "setting": "1440 min, listed as Z5090949977, 10 mg/kg", "result": "13.6 ng/mL and 18.4 ng/mL"},
      {"measurement": "Plasma concentration, Final (individual mouse)", "setting": "IV 10 mg/kg, 5 min, single animals, listed as Z5090949977, 10 mg/kg", "result": "28260 ng/mL and 26240 ng/mL"},
      {"measurement": "Plasma concentration, Final (individual mouse)", "setting": "IV 10 mg/kg, 15 min, single animals, listed as Z5090949977, 10 mg/kg", "result": "16140 ng/mL and 20380 ng/mL"},
      {"measurement": "Plasma concentration, Final (individual mouse)", "setting": "IV 10 mg/kg, 30 min, single animals, listed as Z5090949977, 10 mg/kg", "result": "14230 ng/mL and 12830 ng/mL"},
      {"measurement": "Plasma concentration, Final (individual mouse)", "setting": "IV 10 mg/kg, 60 min, single animals, listed as Z5090949977, 10 mg/kg", "result": "8422 ng/mL and 12040 ng/mL"},
      {"measurement": "Plasma concentration, Final (individual mouse)", "setting": "IV 10 mg/kg, 120 min, single animals, listed as Z5090949977, 10 mg/kg", "result": "4081 ng/mL and 3418 ng/mL"},
      {"measurement": "Plasma concentration, Final (individual mouse)", "setting": "IV 10 mg/kg, 240 min, single animals, listed as Z5090949977, 10 mg/kg", "result": "2055 ng/mL and 1818 ng/mL"},
      {"measurement": "Plasma concentration, Final (individual mouse)", "setting": "IV 10 mg/kg, 360 min, single animals, listed as Z5090949977, 10 mg/kg", "result": "2041 ng/mL and 1884 ng/mL"},
      {"measurement": "Plasma concentration, Final (individual mouse)", "setting": "IV 10 mg/kg, 480 min, single animals, listed as Z5090949977, 10 mg/kg", "result": "829 ng/mL and 1219 ng/mL and 1675 ng/mL"},
      {"measurement": "Plasma concentration, Final (individual mouse)", "setting": "IV 10 mg/kg, 1440 min, single animals, listed as Z5090949977, 10 mg/kg", "result": "31.5 ng/mL and 13.7 ng/mL and 84.5 ng/mL"},
      {"measurement": "Plasma concentration, Final (individual mouse)", "setting": "PO 30 mg/kg, 5 min, single animals, listed as Z5090949977, 30 mg/kg", "result": "2091 ng/mL and 7833 ng/mL and 3112 ng/mL"},
      {"measurement": "Plasma concentration, Final (individual mouse)", "setting": "PO 30 mg/kg, 15 min, single animals, listed as Z5090949977, 30 mg/kg", "result": "23680 ng/mL and 31270 ng/mL"},
      {"measurement": "Plasma concentration, Final (individual mouse)", "setting": "PO 30 mg/kg, 30 min, single animals, listed as Z5090949977, 30 mg/kg", "result": "18100 ng/mL and 24020 ng/mL"},
      {"measurement": "Plasma concentration, Final (individual mouse)", "setting": "PO 30 mg/kg, 60 min, single animals, listed as Z5090949977, 30 mg/kg", "result": "14280 ng/mL and 20060 ng/mL"},
      {"measurement": "Plasma concentration, Final (individual mouse)", "setting": "PO 30 mg/kg, 120 min, single animals, listed as Z5090949977, 30 mg/kg", "result": "8277 ng/mL and 7588 ng/mL"},
      {"measurement": "Plasma concentration, Final (individual mouse)", "setting": "PO 30 mg/kg, 240 min, single animals, listed as Z5090949977, 30 mg/kg", "result": "2686 ng/mL and 2897 ng/mL"},
      {"measurement": "Plasma concentration, Final (individual mouse)", "setting": "PO 30 mg/kg, 360 min, single animals, listed as Z5090949977, 30 mg/kg", "result": "3917 ng/mL and 5212 ng/mL"},
      {"measurement": "Plasma concentration, Final (individual mouse)", "setting": "PO 30 mg/kg, 480 min, single animals, listed as Z5090949977, 30 mg/kg", "result": "8465 ng/mL and 5117 ng/mL and 2129 ng/mL"},
      {"measurement": "Plasma concentration, Final (individual mouse)", "setting": "PO 30 mg/kg, 1440 min, single animals, listed as Z5090949977, 30 mg/kg", "result": "154 ng/mL and 78.9 ng/mL and 329 ng/mL"}
    ]}
  ]
}
